Reference: paper PMC8708704, “Discovery of New Chemical Tools against Leishmania amazonensis via the MMV Pathogen Box” (Pharmaceuticals, 2021)
Read-outs that look alike come from different tables or passages of the source.

What was measured:
[1] = tested on: Leishmania amazonensis promastigotes; test: Leishmanicidal activity against promastigotes (alamarBlue assay; screening at 10 µM and IC50); format: cell-based; conditions: for % of inhibition at 10 µM (against L. amazonensis promastigotes): first screening; for % of inhibition at 10 µM (against L. amazonensis promastigotes) / IC50: 72 h; for IC50: read-out: Leishmania amazonensis Promastigotes IC50; for Selectivity Index (CC50/IC50), promastigotes: macrophage CC50 / promastigote IC50
Procedure: For the experiments, promastigotes of Leishmania amazonensis strain (MHOM/BR/77/LTB0016) were used; they were maintained in RPMI 1640 medium (Gibco, Massachusetts, USA) at 26 °C. […] Subsequently, the plates were analyzed on an EnSpire multimode plate reader (PerkinElmer, MA, USA) to measure their fluorescence after 72 h. […] To this end, serial dilutions were performed in 96 well plates, and incubated with the parasites for 72 h after adding alamarBlue®. Next, the plates were analyzed on the EnSpire plate reader and the IC50 values were calculated by using SigmaPlot 14.0 (Systat Software Inc., Chicago, IL, USA). Each concentration was tested in duplicate and in three independent experiments for all the compounds.

[2] = tested on: Leishmania amazonensis intracellular amastigote; test: Intracellular amastigote activity (parasite rescue and transformation assay); format: cell-based; conditions: for IC50: Leishmania amazonensis, Macrophage, read-out: Leishmania amazonensis Intracellular Amastigote IC50; for Selectivity Index (CC50/IC50), intracellular amastigote: macrophage CC50 / amastigote IC50
Procedure: The intracellular amastigote activity was measured by parasite rescue and transformation assay, also performed according to Jain et al. […] The macrophages were placed in a 96 well plate at a density of 2 × 10^5/mL in DMEM and incubated for 5 h. […] After the incubation, the excess promastigotes were washed off and serial dilutions of the compounds were added. After 24 h of incubation, we removed the medium and added 30 μL of Schneider medium with 0.05% SDS to break the macrophages. The plate was shaken for 30 s and a further 180 μL of medium was added to each well. The plates were then incubated at 26 °C for 72 h for the transformation of the rescued amastigote into promastigotes. AlamarBlue® was added and the plates were measured and analyzed as discussed above.

[3] = Cytotoxic activity against murine macrophages (alamarBlue); conditions: mouse
[4] = design: method as in mmv.org; conditions: ref mmv.org; cited from earlier work
[5] = Leishmania amazonensis, alamarBlue
[6] = 24 h treatment of infected macrophages, rescue 72 h

SMILES | % of inhibition at 10 µM (against L. amazonensis promastigotes) [1] [%] | other results
Cc1nc(-c2ccccn2)nc(N2CCC(Cc3ccccc3)C2)c1Cl (stereo not shown) [MMV659004] | 87 | 
Brc1cncc(-c2cc(NCCCn3ccnc3)nc(-c3ccccc3)n2)c1 [MMV661713] | 84 | 
COc1nc2ccc(Br)cc2cc1[C@@H](c1ccccc1)[C@@](O)(CCN(C)C)c1cccc2ccccc12 [Compound 1, Bedaquiline, reference compound] |  | IC50 ([1]; Leishmania amazonensis): 6.43 ± 1.06 µM; Selectivity Index (CC50/IC50), promastigotes [1]: >1.56; IC50 [2]: > 10 µM; CC50 at 24 h [3]: > 10 µM
CN(C)c1cc(NC(=O)Nc2ccccc2)c2ccccc2n1 [MMV006901] | 85 | 
CCC(Sc1nc2ccccc2o1)C(=O)Nc1nccs1 (stereo not shown) [MMV676383] | 83 | 
COC(=O)c1c(NC(=O)c2c(F)c(F)c(F)c(F)c2F)sc2c1CCCCC2 [MMV461553] | 88 | 
CCCn1c(NC(=O)c2ccc3ccccc3n2)nc2ccccc21 [Compound 6] |  | IC50 [1, 5]: 3.93 ± 0.64 µM; Selectivity Index (CC50/IC50), promastigotes [1]: >2.54; IC50 [2, 6]: 8.52 ± 0.67 µM; Selectivity Index (CC50/IC50), intracellular amastigote [2]: >1.17; Glutathione Reactivity [4]: medium; CC50 at 24 h ([3]; J774A.1 murine macrophages): > 10 µM
N#Cc1nc(-c2ccccc2)oc1S(=O)(=O)c1ccc(Cl)cc1 [Compound 2] |  | IC50 [1, 5]: 4.03 ± 0.73 µM; Selectivity Index (CC50/IC50), promastigotes [1]: >2.48; IC50 [2, 6]: > 10 µM; CC50 at 24 h ([3]; J774A.1 murine macrophages): > 10 µM
CCOc1ccc(-c2nc(CNCCc3ccc(F)cc3)cs2)cc1 [MMV688938] | 85 | 
COc1nc2ccc(Br)cc2cc1[C@@H](c1ccccc1)[C@@](O)(CCN(C)C)c1cccc2ccccc12 [MMV689758, reference compound] | 90 | 
O=C(Nc1ccc(C(F)(F)F)c(C(F)(F)F)c1)c1cc(Cl)ccc1O [MMV687807] | 90 | 
CNc1nnc(Sc2cnn(-c3ccccc3)c(=O)c2Cl)s1 [MMV688763] | 86 | 
c1coc(CNc2nc(N3CCCCC3)nc3ccccc23)c1 [MMV676401] | 84 | 
Cc1ncc(-c2ccnc(Nc3ccc(S(C)(=O)=O)cc3)n2)n1C(C)C [MMV676604] | 66 | 
Cn1c(=O)c2c(S(C)(=O)=O)snc2n(C)c1=O [Compound 4] |  | IC50 [1, 5]: < 2 µM; IC50 ([1]; alamarBlue): 1.44 ± 0.24 µM; Selectivity Index (CC50/IC50), promastigotes [1]: 2.94; IC50 [2, 6]: > 10 µM; CC50 at 24 h ([3]; J774A.1 murine macrophages): 4.3 ± 0.16 µM
CN1CCN(CCCOc2ncc(Nc3ncc(-c4ccc(C(F)(F)F)c(F)c4)nc3C(N)=O)cn2)CC1 [Compound 8] |  | IC50 [1, 5]: 2.62 ± 0.4 µM; Selectivity Index (CC50/IC50), promastigotes [1]: 3.06; IC50 [2, 6]: 6.85 ± 0.75 µM; Selectivity Index (CC50/IC50), intracellular amastigote [2]: 1.17; CC50 at 24 h ([3]; J774A.1 murine macrophages): 8.01 ± 1.13 µM
NC(N)=Nc1ccc(-c2ccc(-c3ccc(N=C(N)N)cc3Cl)o2)c(Cl)c1 [MMV688179] | 86 | 
O=C(c1ccco1)N(CCCn1ccnc1)c1nc2c(Cl)cccc2s1 [MMV688936] | 90 | 
O[C@@H](c1cc(C(F)(F)F)nc2c(C(F)(F)F)cccc12)[C@H]1CCCCN1 [MMV000016, reference compound] | 86 | 
CS(=O)(=O)c1ccc(C(=O)N(CC2CCCO2)c2nc3ccccc3s2)cc1[N+](=O)[O-] (stereo not shown) [MMV688761] | 88 | 
CC(C)=CCC/C(C)=C\CNCCNC1C2CC3CC(C2)CC1C3 (stereo not shown) [MMV687273] | 89 | 
Cc1cc(NCCc2ccccc2)nc(NC(=N)Nc2ccc(Cl)cc2)n1 [MMV021660] | 87 | 
COc1ccc2nccc(NC(=O)C3CCN(CCc4ccc(Cl)cc4)CC3)c2n1 [MMV688844] | 80 | 
N=C(N)c1ccc(OCCCCCOc2ccc(C(=N)N)cc2)cc1 [MMV000062, reference compound] | 89 | 
CN1CCN(S(=O)(=O)c2ccc(-c3ccc4c(Nc5ncc(Cl)cn5)ccnc4c3)cc2)CC1 [MMV688283] | 85 | 
CC(c1cc(Cl)cc(Cl)c1)N(C)c1ncc2c(N)nc(N)nc2n1 (stereo not shown) [MMV689437] | 89 | 

SMILES | % of inhibition at 10 µM (against L. amazonensis promastigotes) [1] [%] | other results
N#Cc1nc(-c2ccccc2)oc1S(=O)(=O)c1ccc(Cl)cc1 [MMV676412] | 93 | 
Cc1ccc2oc(-c3cc(NC(=O)Cc4ccccc4)ccc3Cl)nc2c1 [MMV676509] | 80 | 
Nc1ccc2ncnc(Nc3ccc(OCc4cccc(F)c4)c(Cl)c3)c2c1 [MMV688273] | 79 | 
CCc1c(C)nc(-n2nc(C)cc2NC(=O)c2ccccc2SC)[nH]c1=O [MMV676477] | 92 | 
Cc1ccc(NC(=O)c2nc[nH]c2C(=O)Nc2nc3ccccc3[nH]2)c(C)c1 [MMV011903] | 86 | 
CCOC(=O)c1c(NC(=O)c2c(F)c(F)c(F)c(F)c2F)sc(C(N)=O)c1C [MMV153413] | 86 | 
Cc1cc(C2=NOC(c3cc(Cl)c(F)c(Cl)c3)(C(F)(F)F)C2)ccc1C(=O)NCc1ccc2c(c1)C(C)(C)OB2O (stereo not shown) [MMV687776] | 52 | 
Cc1[nH]c2cc(F)cc(F)c2c(=O)c1-c1ccc(Oc2ccc(OC(F)(F)F)cc2)cc1 [MMV671636] | 66 | 
CC(C)N=c1cc2n(-c3ccc(Cl)cc3)c3ccccc3nc-2cc1Nc1ccc(Cl)cc1 [MMV687800, reference compound] | 88 | 
Cc1[nH]c2ccccc2c1C(c1cccs1)N1CCN(C)CC1 (stereo not shown) [MMV688768] | 86 | 
COc1cccc(-c2nc3c(N4CCCC4)cccc3n2CC2CCCN2)n1 (stereo not shown) [MMV687703] | 85 | 
O=C(Nc1ccc(F)c(-c2nc3ncc(-c4ccccc4)cc3[nH]2)c1)N1CCCC1 [MMV688372] | 87 | 
COc1ccc(Oc2ccc([C@@H](C)N(C)c3ncc4c(N)nc(N)nc4n3)cc2)cc1 [MMV690102] | 89 | 
C[C@]1(COc2ccc(N3CCC(Oc4ccc(OC(F)(F)F)cc4)CC3)cc2)Cn2cc([N+](=O)[O-])nc2O1 [MMV688262] | 86 | 
CC(=O)OC[C@H]1O[C@@H]([S-])[C@H](OC(C)=O)[C@@H](OC(C)=O)[C@@H]1OC(C)=O.CC[PH+](CC)CC.[Au] [MMV688978, reference compound] | 90 | 
COc1cccc(-n2nnnc2S(C)(=O)=O)c1 [MMV272144] | 89 | 
NCCN(C(=O)c1ccc(Cl)cc1Cl)c1ccc(OCc2ccc(Cl)cc2)cc1 [MMV688371] | 89 | 
Cc1cnc(N2CCN[C@@H](Cc3ccccc3)C2)nc1Oc1ccc(-n2ccnc2)cc1 [MMV687765] | 82 | 
CC(C)n1nc(-c2cc3c(Cl)cccc3[nH]2)c2c(N)ncnc21 [MMV688417] | 87 | 
CO/N=C(/C(=O)OC)c1ccccc1CO/N=C(/C)c1cccc(C(F)(F)F)c1 [MMV688754] | 76 | 
O=C(Nc1cccc(Cl)c1)c1cnc(N2CCN(c3ccncc3)CC2)c(Cl)c1 [MMV024406] | 92 | 
CCCCOC(=O)Nc1cc2[nH]c(C3CCCCC3)nc2cc1N1CCCC1 [MMV687730] | 87 | 
Cc1ccc(-c2nc(CN(Cc3ccccn3)C(C)C)cs2)o1 [MMV1088520] | 89 | 
CC1(O)CC(c2nc(-c3ccc4ccc(-c5ccccc5)nc4c3)c3c(N)nccn23)C1 (stereo not shown) [MMV676605] | 53 | 
Cc1ccc(S(=O)(=O)n2cc(-c3ccnc(N)c3)c3cc(Br)cnc32)cc1 [MMV024114] | 92 | 
